Experimental data from doi:10.1101/2020.12.17.423223v1 (biorxiv, 2020).

How the values were obtained:
Assay in all cases: two-electrode voltage clamp, Xenopus oocytes
Type in all cases: cell-based
Pun-GLC-3 = target: T1, Pun-GLC-3 (Parascaris univalens, UniProt A0A894K4V1)
T1 construct: full-length, expressed singly (cRNA) in Xenopus laevis oocytes; homomeric pentameric GluCl
T1 sequence (A0A894K4V1 25-485): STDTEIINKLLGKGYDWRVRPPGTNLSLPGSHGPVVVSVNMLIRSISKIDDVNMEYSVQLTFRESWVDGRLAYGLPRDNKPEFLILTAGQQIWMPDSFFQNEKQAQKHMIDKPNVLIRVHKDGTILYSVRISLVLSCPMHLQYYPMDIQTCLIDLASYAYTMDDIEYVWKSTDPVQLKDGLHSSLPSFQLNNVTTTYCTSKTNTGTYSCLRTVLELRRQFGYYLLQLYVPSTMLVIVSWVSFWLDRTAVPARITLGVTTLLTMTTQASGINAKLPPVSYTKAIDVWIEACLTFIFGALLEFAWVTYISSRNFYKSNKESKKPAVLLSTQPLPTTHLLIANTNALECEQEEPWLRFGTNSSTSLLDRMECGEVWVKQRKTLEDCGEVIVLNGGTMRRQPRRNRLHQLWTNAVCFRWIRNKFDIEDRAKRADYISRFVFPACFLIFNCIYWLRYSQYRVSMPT

Pun-GLC-2/GLC-3 = target: T2, Pun-GLC-2/GLC-3 (Parascaris univalens, UniProt A0A894K4V1+A0A894KE58)
T2 construct: full-length subunits co-expressed 1:1 (cRNA) in Xenopus laevis oocytes; heteromeric, pentameric GluCl, stoichiometry unknown
T2 sequence (A0A894KE58 21-448): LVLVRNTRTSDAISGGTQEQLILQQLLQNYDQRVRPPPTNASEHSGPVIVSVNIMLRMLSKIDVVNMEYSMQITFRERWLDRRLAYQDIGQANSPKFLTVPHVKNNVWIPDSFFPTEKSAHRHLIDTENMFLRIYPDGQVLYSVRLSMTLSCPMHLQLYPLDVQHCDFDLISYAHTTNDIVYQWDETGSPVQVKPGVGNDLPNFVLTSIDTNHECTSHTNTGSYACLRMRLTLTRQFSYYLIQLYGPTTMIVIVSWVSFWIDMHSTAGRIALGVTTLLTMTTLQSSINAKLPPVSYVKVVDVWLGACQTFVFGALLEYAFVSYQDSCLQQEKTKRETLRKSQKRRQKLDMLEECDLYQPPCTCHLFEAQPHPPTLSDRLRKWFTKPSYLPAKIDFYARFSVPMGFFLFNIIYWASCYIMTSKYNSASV
T2 sequence (A0A894K4V1 25-485): T1 sequence (A0A894K4V1 25-485)

Cel-AVR-14B/GLC-2 = target: T3, Cel-AVR-14B/GLC-2 (Caenorhabditis elegans, UniProt Q17328+Q17369)
T3 construct: full-length subunits co-expressed 1:1 (cRNA) in Xenopus laevis oocytes; heteromeric, pentameric GluCl, stoichiometry unknown; b70 prints CAA04170 for AVR-14B, which b73 gives to AVR-15B
T3 sequence (Q17369 22-430): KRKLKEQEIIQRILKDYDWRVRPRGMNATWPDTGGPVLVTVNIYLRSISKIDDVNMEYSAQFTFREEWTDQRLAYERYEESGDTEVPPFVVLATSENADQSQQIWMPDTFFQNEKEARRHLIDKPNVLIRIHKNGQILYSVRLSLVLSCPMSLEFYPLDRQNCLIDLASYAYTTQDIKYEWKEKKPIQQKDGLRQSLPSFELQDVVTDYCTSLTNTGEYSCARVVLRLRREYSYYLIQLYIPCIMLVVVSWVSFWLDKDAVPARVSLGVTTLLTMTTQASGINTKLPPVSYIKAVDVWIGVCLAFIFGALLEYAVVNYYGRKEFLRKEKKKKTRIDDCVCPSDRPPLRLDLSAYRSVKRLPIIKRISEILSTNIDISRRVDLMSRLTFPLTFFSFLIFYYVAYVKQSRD
T3 sequence (Q17328 23-434): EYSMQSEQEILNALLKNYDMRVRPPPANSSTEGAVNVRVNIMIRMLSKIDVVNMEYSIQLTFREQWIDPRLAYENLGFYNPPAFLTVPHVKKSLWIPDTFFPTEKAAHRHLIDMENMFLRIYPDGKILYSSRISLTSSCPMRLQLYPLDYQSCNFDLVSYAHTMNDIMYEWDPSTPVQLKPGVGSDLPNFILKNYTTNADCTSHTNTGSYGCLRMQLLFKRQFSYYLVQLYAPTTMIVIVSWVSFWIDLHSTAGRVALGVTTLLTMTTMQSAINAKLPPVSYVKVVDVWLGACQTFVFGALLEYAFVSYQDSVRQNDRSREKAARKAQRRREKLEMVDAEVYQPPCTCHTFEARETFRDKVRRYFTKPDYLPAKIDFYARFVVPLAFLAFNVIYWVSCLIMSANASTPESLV

Cel-GLC-2/GLC-3 = target: T4, Cel-GLC-2/GLC-3 (Caenorhabditis elegans, UniProt G5EEZ3+Q17328)
T4 construct: full-length subunits co-expressed 1:1 (cRNA) in Xenopus laevis oocytes; heteromeric, pentameric GluCl, stoichiometry unknown
T4 sequence (Q17328 23-434): T3 sequence (Q17328 23-434)
T4 sequence (G5EEZ3 23-484): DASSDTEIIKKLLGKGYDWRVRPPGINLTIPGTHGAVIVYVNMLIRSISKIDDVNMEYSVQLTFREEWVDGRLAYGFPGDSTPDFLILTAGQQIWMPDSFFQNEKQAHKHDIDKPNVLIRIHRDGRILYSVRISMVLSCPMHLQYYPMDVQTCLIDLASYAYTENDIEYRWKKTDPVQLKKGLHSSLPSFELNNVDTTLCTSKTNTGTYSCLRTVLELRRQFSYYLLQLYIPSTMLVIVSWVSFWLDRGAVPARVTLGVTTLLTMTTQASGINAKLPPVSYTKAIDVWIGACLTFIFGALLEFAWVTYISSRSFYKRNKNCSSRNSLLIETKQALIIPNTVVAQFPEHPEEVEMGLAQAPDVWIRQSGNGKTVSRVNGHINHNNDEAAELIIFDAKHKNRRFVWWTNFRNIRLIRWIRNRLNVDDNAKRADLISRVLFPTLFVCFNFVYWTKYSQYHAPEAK

Pun-AVR-14B/GLC-2 = target: T5, Pun-AVR-14B/GLC-2 (Parascaris univalens, UniProt A0A894K7G1+A0A894KE58)
T5 construct: full-length subunits co-expressed 1:1 (cRNA) in Xenopus laevis oocytes; heteromeric, pentameric GluCl, stoichiometry unknown
T5 sequence (A0A894K7G1 19-428): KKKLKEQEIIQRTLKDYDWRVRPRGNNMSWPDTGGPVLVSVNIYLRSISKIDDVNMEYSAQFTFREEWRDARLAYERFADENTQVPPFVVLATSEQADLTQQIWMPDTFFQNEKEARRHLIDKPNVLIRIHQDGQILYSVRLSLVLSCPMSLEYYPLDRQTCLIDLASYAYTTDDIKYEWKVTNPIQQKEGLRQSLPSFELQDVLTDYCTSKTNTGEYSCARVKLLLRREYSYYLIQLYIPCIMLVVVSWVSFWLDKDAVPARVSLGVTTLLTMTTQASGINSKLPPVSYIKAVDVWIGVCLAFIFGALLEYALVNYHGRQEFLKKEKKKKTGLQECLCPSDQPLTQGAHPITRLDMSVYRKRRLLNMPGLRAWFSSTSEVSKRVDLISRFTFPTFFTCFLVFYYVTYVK
T5 sequence (A0A894KE58 21-448): T2 sequence (A0A894KE58 21-448)

Cel-GLC-2 = target: T6, Cel-GLC-2 (Caenorhabditis elegans, UniProt Q17328)
T6 construct: full-length, expressed singly (cRNA) in Xenopus laevis oocytes; homomeric pentameric GluCl
T6 sequence (Q17328 23-434): T3 sequence (Q17328 23-434)

Cel-AVR-14B = target: T7, Cel-AVR-14B (Caenorhabditis elegans, UniProt Q17369)
T7 construct: full-length, expressed singly (cRNA) in Xenopus laevis oocytes; homomeric pentameric GluCl; b70 prints CAA04170 for AVR-14B, which b73 gives to AVR-15B
T7 sequence (Q17369 22-430): T3 sequence (Q17369 22-430)

N[C@@H](CCC(=O)O)C(=O)O [glutamate]
EC50 (Pun-GLC-3): 1480 ± 111 µM | EC50 (Pun-GLC-2/GLC-3): 120 ± 5.7 µM | EC50 (Cel-AVR-14B/GLC-2): 20.5 ± 1.3 µM | EC50 (Cel-GLC-2/GLC-3): 46.8 ± 3.7 µM | EC50 (Pun-AVR-14B/GLC-2): 13.6 ± 1.6 µM | EC50 (Cel-GLC-2): 215 ± 13.1 µM | EC50 (Cel-AVR-14B): 112 ± 13 µM
